Assay results published in article PMC10315211 (Molecular microbiology, 2023).

Target: Rv0805 (N-His-Rv0805) (Mycobacterium tuberculosis, UniProt P9WP65)
Sequence (P9WP65 whole entry): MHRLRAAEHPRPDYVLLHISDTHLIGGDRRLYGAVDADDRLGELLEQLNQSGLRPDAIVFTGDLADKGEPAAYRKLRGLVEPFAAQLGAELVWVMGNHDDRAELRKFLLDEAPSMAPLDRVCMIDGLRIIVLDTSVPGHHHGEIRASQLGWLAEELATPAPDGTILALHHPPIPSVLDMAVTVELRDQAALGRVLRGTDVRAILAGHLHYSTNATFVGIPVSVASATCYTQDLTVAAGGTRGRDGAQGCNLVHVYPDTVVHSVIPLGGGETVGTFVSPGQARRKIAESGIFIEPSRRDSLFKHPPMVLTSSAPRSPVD

C[N+](C)(C)CCOP(=O)([O-])OC[C@H](O)CO [glycerophosphocholine]
choline oxidase / HRP coupled Amplex Red fluorometric assay: both Rv0805 and CpdAEc produced choline and Gly3P from glycerophosphocholine (GPC)
